Tested on: Human recombinant GST-PI3K
Assay: PI3K induced-lipid phosphorylation scintillation proximity assay (neomycin-coated SPA beads)
Type: biochemical
Details: amount necessary to achieve 50% inhibition of PI3K; 120 min at room temperature
Description: The efficacy of compounds of the invention in inhibiting the PI3K induced-lipid phosphorylation may be tested in the following binding assay. The assay combines the scintillation proximity assay technology (SPA, Amersham) with the capacity of neomycin (a polycationic antibiotic) to bind phospholipids with high affinity and specificity. The Scintillation Proximity Assay is based on the properties of weakly emitting isotopes (such as ^3H, ^125I, ^33P). Coating SPA beads with neomycin allows the detection of phosphorylated lipid substrates after incubation with recombinant PI3K and radioactive ATP in the same well, by capturing the radioactive phospholipids to the SPA beads through their specific binding to neomycin. To a 96 wells MTP containing 10 μl of the test compound of Formula (I) (solubilized in 10% DMSO; to yield a concentration of 100, 25, 5.0, 1.25, 0.312, 0.078, 0.0195, 0.00488, 0.00122 and 0.0003 μM of the test compound), the following assay components are added: 1) 10 μL of lipid micelles 2) […] of Kinase buffer ([^33P]γATP162 μM/300 nCi, MgCl2 2.5 mM, DTT 2.5 mM, Na3VO4 25 μM in Hepes 40 mM, pH 7.4) and 3) 10 μL (100 ng) of Human recombinant GST-PI3K (in Hepes 40 mM, pH 7.4, ethylenglycol 4%). After incubation at room temperature for 120 minutes, with gentle agitation, the reaction is stopped by addition of 200 μL of a solution containing 250 μg of neomycin-coated PVT SPA beads, ATP 60 mM and EDTA 6.2 mM in PBS. The assay is further incubated at room temperature for 60 minutes with gentle agitation to allow binding of phospholipids to neomycin-SPA beads. After precipitation of the neomycin-coated PVT SPA beads for 5 minutes at 1500×g, radioactive PtdIns(3)P is quantified by scintillation counting in a Wallac MicroBeta™ plate counter. The values indicated in Table I below refer to the IC50 (μM) with respect to PI3K, i.e. the amount necessary to achieve 50% inhibition of said target. Said values show a considerable inhibitory potency of pyridopyrimidine compounds with regard to PI3K.

| IC50 [µM] | Compound |
| --- | --- |
| 0.108 | O=C(O)c1cc(Cl)c2nc(N3CCOCC3)nc(-c3cccc(O)c3)c2n1 [Example 9, 8-Chloro-4-(3-hydroxyphenyl)-2-morpholin-4-ylpyrido[3,2-d]pyrimidine-6-carboxylic acid] |
| 0.015 | CS(=O)(=O)c1cc(C(=O)O)nc2c(-c3cc(O)cc(F)c3)nc(N3CCOCC3)nc12 [Example 56, 4-(3-Fluoro-5-hydroxyphenyl)-8-(methylsulfonyl)-2-morpholin-4-ylpyrido[3,2-d]pyrimidine-6-carboxylic acid] |
| 0.132 | CN(C)c1cc(C(=O)O)nc2c(-c3cccc4[nH]ccc34)nc(N3CCOCC3)nc12 [Example 17, 8-Dimethylamino-4-(1H-indol-4-yl)-2-morpholin-4-yl-pyrido[3,2-d]pyrimidine-6-carboxylic acid] |
| 0.077 | CN(CCO)c1cc(C(=O)O)nc2c(-c3cccc4[nH]ccc34)nc(N3CCOCC3)nc12 [Example 20, 8-[(2-Hydroxy-ethyl)-methyl-amino]-4-(1H-indol-4-yl)-2-morpholin-4-yl-pyrido[3,2-d]pyrimidine-6-carboxylic acid] |
| 0.732 | O=C(O)c1cc(NCCO)c2nc(N3CCOCC3)nc(-c3ccc(O)cc3)c2n1 [Example 7, 8-(2-Hydroxy-ethylamino)-4-(4-hydroxy-phenyl)-2-morpholin-4-yl-pyrido[3,2-d]pyrimidine-6-carboxylic acid] |
| 0.024 | COc1ccccc1-c1cc(C(=O)O)nc2c(-c3cccc(O)c3)nc(N3CCOCC3)nc12 [Example 13, 4-(3-hydroxyphenyl)-8-(2-methoxyphenyl)-2-morpholin-4-ylpyrido[3,2-d]pyrimidine-6-carboxylic acid] |
| 0.459 | CN(C)CCN(C)c1cc(C(=O)O)nc2c(-c3ccccc3O)nc(N3CCOCC3)nc12 [Example 43, 8-[[2-(Dimethylamino)ethyl](methyl)amino]-4-(2-hydroxyphenyl)-2-morpholin-4-ylpyrido[3,2-d]pyrimidine-6-carboxylic acid] |
| 0.546 | COCCN(C)c1cc(C(=O)O)nc2c(-c3ccc(CO)cc3)nc(N3CCOCC3)nc12 [Example 22, 4-(4-Hydroxymethyl-phenyl)-8-[(2-methoxy-ethyl)-methyl-amino]-2-morpholin-4-yl-pyrido[3,2-d]pyrimidine-6-carboxylic acid] |
| 0.678 | O=C(O)c1cc(Cl)c2nc(N3CCOCC3)nc(-c3ccccc3)c2n1 [Example 64, 8-Chloro-2-morpholin-4-yl-4-phenylpyrido[3,2-d]pyrimidine-6-carboxylic acid] |
| 2.52 | COCCOc1cc(C(=O)O)nc2c(-c3ccc(O)cc3)nc(N3CCOCC3)nc12 [Example 6, 4-(4-Hydroxy-phenyl)-8-(2-methoxy-ethoxy)-2-morpholin-4-yl-pyrido[3,2-d]pyrimidine-6-carboxylic acid] |
| 4.49 | COc1cccc(-c2nc(N3CCOCC3)nc3ccc(C(=O)O)nc23)c1 [Example 2, 4-(3-Methoxyphenyl)-2-morpholin-4-ylpyrido[3,2-d]pyrimidine-6-carboxylic acid] |
| 2.49 | COCc1cccc(-c2nc(N3CCOCC3)nc3c(NCCO)cc(C(=O)O)nc23)c1 [Example 28, 8-(2-Hydroxy-ethylamino)-4-(3-methoxymethyl-phenyl)-2-morpholin-4-yl-pyrido[3,2-d]pyrimidine-6-carboxylic acid] |
| 0.29 | COCCN(C)c1cc(C(=O)O)nc2c(-c3ccc(O)cc3)nc(N3CCOCC3)nc12 [Example 3, 4-(4-hydroxy-phenyl)-8-[(2-methoxy-ethyl)-methyl-amino]-2-morpholin-4-yl-pyrido[3,2-d]pyrimidine-6-carboxylic acid] |
| 0.043 | O=C(O)c1cc(NCCO)c2nc(N3CCOCC3)nc(-c3cccc(F)c3O)c2n1 [Example 38, 4-(3-Fluoro-2-hydroxyphenyl)-8-[(2-hydroxyethyl)amino]-2-morpholin-4-ylpyrido[3,2-d]pyrimidine-6-carboxylic acid] |
| 0.089 | COCCNc1cc(C(=O)O)nc2c(-c3ccc(F)cc3O)nc(N3CCOCC3)nc12 [Example 54, 4-(4-Fluoro-2-hydroxyphenyl)-8-[(2-methoxyethyl)amino]-2-morpholin-4-ylpyrido[3,2-d]pyrimidine-6-carboxylic acid] |
| 0.062 | COCCN(C)c1cc(C(=O)O)nc2c(-c3ccc(F)cc3O)nc(N3CCOCC3)nc12 [Example 51, 4-(4-Fluoro-2-hydroxyphenyl)-8-[(2-methoxyethyl)(methyl)amino]-2-morpholin-4-ylpyrido[3,2-d]pyrimidine-6-carboxylic acid] |
| 0.015 | CS(=O)(=O)N1CCN(c2cc(C(=O)O)nc3c(-c4cccc(O)c4)nc(N4CCOCC4)nc23)CC1 [Example 61, 4-(3-Hydroxyphenyl)-8-[4-(methylsulfonyl)piperazin-1-yl]-2-morpholin-4-ylpyrido[3,2-d]pyrimidine-6-carboxylic acid] |
| 0.128 | COCCNc1cc(C(=O)O)nc2c(-c3cccc4[nH]ccc34)nc(N3CCOCC3)nc12 [Example 19, 4-(1H-Indol-4-yl)-8-(2-methoxy-ethylamino)-2-morpholin-4-yl-pyrido[3,2-d]pyrimidine-6-carboxylic acid] |
| 0.034 | CN(C)c1cc(C(=O)O)nc2c(-c3cccc(CO)c3)nc(N3CCOCC3)nc12 [Example 23, 8-Dimethylamino-4-(3-hydroxymethyl-phenyl)-2-morpholin-4-yl-pyrido[3,2-d]pyrimidine-6-carboxylic acid] |
| 0.78 | CNc1cc(C(=O)O)nc2c(-c3cccc4[nH]ccc34)nc(N3CCOCC3)nc12 [Example 18, 4-(1 H-Indol-4-yl)-8-methylamino-2-morpholin-4-yl-pyrido[3,2-d]pyrimidine-6-carboxylic acid] |
| 0.073 | COCCNc1cc(C(=O)O)nc2c(-c3cc(F)ccc3O)nc(N3CCOCC3)nc12 [Example 31, 4-(5-Fluoro-2-hydroxyphenyl)-8-[(2-methoxyethyl)amino]-2-morpholin-4-ylpyrido[3,2-d]pyrimidine-6-carboxylic acid] |
| 0.346 | COCCNc1cc(C(=O)O)nc2c(-c3ccc(CO)cc3)nc(N3CCOCC3)nc12 [Example 46, 4-[4-(Hydroxymethyl)phenyl]-8-[(2-methoxyethyl)amino]-2-morpholin-4-ylpyrido[3,2-d]pyrimidine-6-carboxylic acid] |
| 0.329 | CN(C)c1cc(C(=O)O)nc2c(-c3ccc(F)c(CO)c3)nc(N3CCOCC3)nc12 [Example 49, 8-(Dimethylamino)-4-[4-fluoro-3-(hydroxymethyl)phenyl]-2-morpholin-4-ylpyrido[3,2-d]pyrimidine-6-carboxylic acid] |
| 0.009 | COCCN(C)c1cc(C(=O)O)nc2c(-c3cccc(F)c3O)nc(N3CCOCC3)nc12 [Example 33, 4-(3-Fluoro-2-hydroxyphenyl)-8-[(2-methoxyethyl)(methyl)amino]-2-morpholin-4-ylpyrido[3,2-d]pyrimidine-6-carboxylic acid] |
| 0.144 | CNc1cc(C(=O)O)nc2c(-c3cccc(O)c3)nc(N3CCOCC3)nc12 [Example 40, 4-(3-Hydroxyphenyl)-8-(methylamino)-2-morpholin-4-ylpyrido[3,2-d]pyrimidine-6-carboxylic acid] |
| 0.137 | CN(C)CCN(C)c1cc(C(=O)O)nc2c(-c3cccc4[nH]ccc34)nc(N3CCOCC3)nc12 [Example 57, 8-[[2-(Dimethylamino)ethyl](methyl)amino]-4-(1H-indol-4-yl)-2-morpholin-4-ylpyrido[3,2-d]pyrimidine-6-carboxylic acid] |

From patent publication US8609666B2, “2-morpholino-pyrido[3,2-D]pyrimidines” (Merck Serono SA, priority 2009, dated 2013)
